Reference: patent publication US11986478B2 (priority 2021, dated 2024)

What was measured:
[1] = test system: SARS-CoV-2 variants of concern B.1.1.7 (Alpha), B.1.351 (Beta) and B.1.617.2 (Delta); test: microbe, parasite or virus in culture; format: cell-based; conditions: Severe acute respiratory syndrome coronavirus 2, VeroE6/TMPRSS2, read-out: EC50 against SARS-CoV-2 variants of concern
SARS2-PLpro K157A mutant = SARS2-PLpro K157A mutant (Severe acute respiratory syndrome coronavirus 2, UniProt P0DTD1, K1720A); format: biochemical, SARS-CoV-2

In the case of `O=C(Nc1ccccc1Cl)c1sc(=S)n2c1[nH]c(=O)c1ccccc12` [Compound F0213], the EC50 [1] is reported as 2.2 to 4.8 µM and the “effect of K157A substitution on inhibitory potency” value (SARS2-PLpro K157A mutant) is reported as “significantly diminished the inhibitory potency”.
